Experimental data as given in patent publication US20250034109A1, “SALTS, COCRYSTALS, PHARMACEUTICAL COMPOSITIONS THEREOF, AND METHODS OF TREATMENT INVOLVING THE SAME” (Servier Pharmaceuticals LLC, priority 2023, published 2025).

Tests used:
mutant IDH1 = details: biochemical and cellular assays; cited from earlier work
mutant IDH2 = details: biochemical and cellular assays; cited from earlier work
[1] = Solubility of the drug substance (general statement); format: physicochemical

solubility [1]: poorly soluble
Compound: C[C@@H](Nc1nc(N[C@H](C)C(F)(F)F)nc(-c2cccc(Cl)n2)n1)C(F)(F)F [Compound 1, 6-(6-chloropyridin-2-yl)-N^2,N^4-bis((R)-1,1,1-trifluoropropan-2-yl)-1,3,5-triazine-2,4-diamine]
inhibitor of mutant IDH1 protein (mutant IDH1): inhibitor
inhibitor of mutant IDH2 protein (mutant IDH2): inhibitor
